Assay results published in US6184374A, “Targeted cytotoxic anthracycline analogs” (priority 1998, dated 2001).
“And” between values parts separate entries of the source, which are not always exact repeats. Equal values may be shown once. Read-outs that look alike come from different tables or passages of the source.

Key:
[1] = test system: MCF-7 human mammary carcinoma cell line; assay type: cell-based
Excerpt: (§1) MXT estrogen-independen mouse mammary carcinoma cell line was obtained from Dr. Gunter Berndhart, University of Regensburg, Germany. All the other cell lines used in the determination of the antiproliferative activity of the compounds of this invention were obtained from the American Type Culture Collection (ATCC).
(§2) For the evaluation of the activity of the analogs, a colorimetric cytotoxicity assay in microtitration plates was used based on quantification of biomass by staining cells with crystal violet, which correlates very well with determination of cell numbers. (Reile et al.; Anal. Biochem. 187, 262-267, 1990; Bernhardt G. et al, J. Cancer Res. Clin. Oncol. (1992), 118, 35-43; Spruss Th. et al, J. Cancer Res. Clin. Oncol 117, 435-443, 1991; Gillies, R. J., Anal. Biochem. 159, 109-113, 1986; Kueng, W. et al.; Anal. Biochem., 182 16-19, 1989.)
(§3) One to two days after seeding cells in 96-well plates the culture medium is exchanged with fresh medium containing the compounds to be tested and fresh medium only for the control cultures. After varying time of incubation, cells are fixed with glutaric dialdehyde and stored under […] at 4° C. until the end of the experiment. Cells are stained with crystal violet and bound stain is extracted with 70% aqueous EtOH. Optical density is measured with EIA Reader (Bio-Tek Instruments) or Biomek 1000 (Beckman) at 590 nm or 600 nm, respectively. Each data point represents the mean value of eight culture wells. T/C values are calculated as T/C=(T-C0)/(C-C0) where T=optical density of treated cultures, C=optical density of control (untreated) cultures, C0 =optical density of cultures at the start of incubation (t=0).
Cells were incubated in IMEM media containing 5% Hl:DCC-FBS (heat inactivated dextran coated charcoal treated fetal bovine serum) on 96 well plates. Relative cell number in treated and control plates was determined by the crystal violet staining method and was expressed as T/C values where T/C=T-C0 /C-C0×100 [T=absorbance of treated cultures, C= absorbance of control cultures, C0 =absorbance of cultures at the start of incubation (t=0). The measured absorbance is proportionate to the cell number.]

[2] = test system: MXT estrogen independent mouse mammary carcinoma cell line; test: In vitro cytotoxic activity, crystal violet colorimetric assay on MXT; assay type: cell-based
Excerpt: as §1, §2, §3

[3] = test system: estrogen independent MXT mouse mammary cancers; test: Treatment of estrogen independent MXT mouse mammary cancers (KS-49); assay type: in vivo
Excerpt: In order to compare the tumor inhibitory activity of cytotoxic doxorubicin derivative, Q6 and its targeted cytotoxic peptide conjugate, Q6^14 gL as well as the well known antineoplastic agent, DOX and to determine the optimal way of administration and the nontoxic doses, LH-RH receptor positive MXT (3.2) ovex tumor pieces (1 mm^3) were implanted s. c. in female B6 D2 F1 mice. One day after transplantation the mice were randomly divided into groups of five animals and the treatment started. The compounds were dissolved in 0.1% trifluoroacetic acid (pH 2) and given intraperitoneally.

[4] = Table 17-1; 3 × 10^-8 M; incubation 120 hr
[5] = Table 17-1; 3 × 10^-9 M; incubation 70 hr
[6] = Table 17-1; 3 × 10^-9 M; incubation 120 hr
[7] = Table 17-1; 10^-8 M; incubation 70 hr
[8] = Table 17-1; 10^-8 M; incubation 120 hr
[9] = Table 17-1; 3 × 10^-8 M; incubation 70 hr
[10] = Table 17-1; 3 × 10^-10 M; incubation 70 hr
[11] = Table 17-1; 3 × 10^-10 M; incubation 120 hr
[12] = Table 17-1; 10^-9 M; incubation 70 hr
[13] = Table 17-1; 10^-9 M; incubation 120 hr

## COc1cccc2c1C(=O)c1c(O)c3c(c(O)c1C2=O)C[C@@](O)(C(=O)CO)C[C@@H]3O[C@H]1C[C@H](N2CC=CC2)[C@H](O)[C@H](C)O1.O=C(O)C(F)(F)F [Compound Q4, 3'-deamino-3'-(3"-pyrroline-1"-yl)doxorubicin]
[1]; [4]
  T/C Value: -5
[1]; [5]
  T/C Value: 106
[1]; [6]
  T/C Value: 97
[1]; [7]
  T/C Value: 72
[1]; [8]
  T/C Value: 65

## COc1cccc2c1C(=O)c1c(O)c3c(c(O)c1C2=O)C[C@@](O)(C(=O)CO)C[C@@H]3O[C@H]1C[C@H](N2CCCC(=O)C2)[C@H](O)[C@H](C)O1.O=C(O)C(F)(F)F [Compound Q7, 3'-deamino-3'-(3"-piperidone-1"-yl) doxorubicin]
[1]; [9]
  T/C Value: 59
[1]; [4]
  T/C Value: 43
[1]; [5]
  T/C Value: 96
[1]; [6]
  T/C Value: 97
[1]; [7]
  T/C Value: 80
[1]; [8]
  T/C Value: 70

## COc1cccc2c1C(=O)c1c(O)c3c(c(O)c1C2=O)C[C@@](O)(C(=O)CO)C[C@@H]3OC1CC(N2C=CCC2)C(O)C(C)O1 (some centres unmarked) [Compound Q6, 3'-deamino-3'-(2"-pyrroline-1"-yl)doxorubicin]
[1]; [5]
  T/C Value: -18
[1]; [6]
  T/C Value: -9
[1]; [10]
  T/C Value: 50
[1]; [11]
  T/C Value: 26
[1]; [12]
  T/C Value: -3
[1]; [13]
  T/C Value: 2
[1]; Table 18-1; 3 × 10^-9 M; 70 hr
  T/C Value on MCF-7 Cell Line: -18
[1]; Table 18-1; 3 × 10^-9 M; 120 hr
  T/C Value on MCF-7 Cell Line: -9
[1]; Table 18-1; 10^-9 M; 70 hr
  T/C Value on MCF-7 Cell Line: -3
[1]; Table 18-1; 10^-9 M; 120 hr
  T/C Value on MCF-7 Cell Line: 2
[1]; Table 18-1; 10^-10 M (by column position); 70 hr
  T/C Value on MCF-7 Cell Line: 50
[1]; Table 18-1; 10^-10 M (by column position); 120 hr
  T/C Value on MCF-7 Cell Line: 26
[2]; 3 × 1^-11 M (so in the source), 28 hr
  T/C value on MXT cell line: 90
[2]; 3 × 1^-11 M (so in the source), 69 hr
  T/C value on MXT cell line: 52
[2]; 3 × 10^-10 M, 28 hr
  T/C value on MXT cell line: 56
[2]; 3 × 10^-10 M, 69 hr
  T/C value on MXT cell line: -13
[2]; 10^-10 M, 28 hr
  T/C value on MXT cell line: 78
[2]; 10^-10 M, 69 hr
  T/C value on MXT cell line: 6
[3]; 0.2 nmol/inj. i.p., total 21 nmol (Groups 5 and 9)
  Average survival: 13.0 days
[3]; 0.5 nmol/inj. i.p., 5 inj./week, total 7.5 nmol (Groups 3 and 7)
  Average survival: 19.6 days
[3]; 1.25 nmol on day 1, 2, 7 and 8
  Toxicity: strong toxicity
[3]; 1.25 nmol/inj. i.p., 2 inj./week, day 1, 2, 7 and 8 (Groups 2 and 6)
  Average survival: 17.4 days and 17.5 days
[3]; 0.25 * nmol/inj. i.p. (dose raised day 9 to 12), total 9.5 nmol (Groups 4 and 8)
  Average survival: 14.6 days
[3]; Group 2, 1.25 nmol on day 1, 2, 7 and 8, at day 16
  Average final tumor volume: 1065 mm^3

## COc1cccc2c1C(=O)c1c(O)c3c(c(O)c1C2=O)C[C@@](O)(C(=O)CO)C[C@@H]3O[C@H]1C[C@H](N2CCCCC2)[C@H](O)[C@H](C)O1 [AN-183, Piperidino-DOX]
[1]; [9]
  T/C Value: 4
[1]; [4]
  T/C Value: 0
[1]; [5]
  T/C Value: 114
[1]; [6]
  T/C Value: 109
[1]; [7]
  T/C Value: 70
[1]; [8]
  T/C Value: 67

## COc1cccc2c1C(=O)c1c(O)c3c(c(O)c1C2=O)C[C@@](O)(C(=O)CO)C[C@@H]3O[C@H]1C[C@H](N2Cc3ccccc3C2)[C@H](O)[C@H](C)O1.O=C(O)C(F)(F)F [Compound Q3, 3'-deamino-3'-(isoindoline-2"-yl)doxorubicin]
[1]; Table 17-1, 10^-8 M; incubation 70 hr
  T/C Value: -11
[1]; Table 17-1, 10^-8 M; incubation 120 hr
  T/C Value: -29
[1]; [9]
  T/C Value: 86
[1]; [4]
  T/C Value: 77
[1]; [7]
  T/C Value: 118
[1]; [8]
  T/C Value: 108

## COc1cccc2c1C(=O)c1c(O)c3c(c(O)c1C2=O)C[C@@](O)(C(=O)CO)C[C@@H]3O[C@H]1C[C@H](N2C=CCCC2)[C@H](O)[C@H](C)O1.O=C(O)C(F)(F)F [Compound Q8, 3'-deamino-3'-(1",3"-tetrahydropyridine-1"-yl)doxorubicin]
[1]; [5]
  T/C Value: 69
[1]; [6]
  T/C Value: 62
[1]; [10]
  T/C Value: 96
[1]; [11]
  T/C Value: 99
[1]; [12]
  T/C Value: 88
[1]; [13]
  T/C Value: 93

## COc1cccc2c1C(=O)c1c(O)c3c(c(O)c1C2=O)C[C@@](O)(C(=O)CO)C[C@@H]3O[C@H]1C[C@H](N2CCC(=O)C2)[C@H](O)[C@H](C)O1.O=C(O)C(F)(F)F [Compound Q5, 3'-deamino-3'-(3"-pyrrolidone-1"-yl) doxorubicin]
[1]; [9]
  T/C Value: -28
[1]; [4]
  T/C Value: -10
[1]; [5]
  T/C Value: 87
[1]; [6]
  T/C Value: 67
[1]; [7]
  T/C Value: 30
[1]; [8]
  T/C Value: 25
